Patent US6887981B2, “Natural antibacterial peptide, the nucleotide sequence encoding it and the use thereof” (Shanghai CAS Shenglonda Biotech (Group) Co., Ltd., priority 2002, dated 2005)

B1: Bin1b: natural antibacterial peptide of beta-defensin family expressed in rat caput epididymidis; SEQ ID NO:2, mature form SEQ ID NO:3 (protein, listed as Homo sapiens)
chain: MKVLLLFAVFFCLVQRNSGDIPPGIRNTVCFMQRGHCRLFMCRSGERKGDICSDPWNRCCVSSSIKNR
modifications: ends and bridges not checked

Experiments:
[1] = EDS rat model, androgen (serum testosterone) level after EDS injection; assay type: in vivo, Sprague-Dawley rat; settings: adult rat, intraperitoneal EDS 7.5 mg/100 g bodyweight; restored in about two weeks
Procedure: The “▴” line represents rat serum testosterone level at various time intervals after EDS injection. The “♦” line represents rat Bin1b expression changes which are calibrated by 18s level.
Adult Sprague-Dawley was intraperitoneally injected with EDS (7.5 mg/100 g bodyweight) in DMSO-H2O (1:3, v/v). The rats were sacrificed on day 1, 3, 7, 14, 21, 28 and 42. The rat without EDS injection served as the negative control. 20 ug total RNA was extracted from rat caput epididymis, fractionated by 1.2% formaldehyde agarose gel electrophoresis, blotted onto Hybond-N+ membrane and hybridized with a probe located at Bin1b cDNA 3′ terminal and 18s ribosome RNA probe.

E. coli = assay: Antimicrobial activity of secretions of primary epididymal epithelial cultures, CFU counting; assay type: cell-based; settings: concluded from caput culture secretions and antisense block
Procedure: FIG. 7A. […] 100 colony forming units (CFU) of E. coli was added to cultures 16 hours prior to examination.
A total of 100 colony-forming units (CFU) of E. coli was added to the apical compartment of the epithelial cells separately from caput epididymis and cauda epididymis. The medium was collected 16 hours later for CFU counting.

| Molecule | secretion of androgen after EDS injection [1] | antimicrobial activity of Bin1b (E. coli) |
| --- | --- | --- |
| CS(=O)(=O)OCCOS(C)(=O)=O [EDS, Ethylene Dinethamesulfonate] | decreased immediately |  |
| B1 |  | antimicrobial activity |
